From patent publication US20050085463A1 (priority 2003, published 2005)
Values joined by “and” are separate entries in the source; they are usually repeats but may differ in a detail not shown here. Equal entries are not always repeated. “Also recorded” adds a separate entry of the source. Where two headings read alike, the source gives them in different places.

What was measured:
[1] = tested on: MK-801-induced hyperactivity; test: Reversal of MK-801-induced hyperactivity; format: in vivo, Non-Swiss Albino (NSA) mice
From the text: Clinically effective antipsychotic drugs can block the behavioral effects of non-competitive N-methyl-D-aspartate […], such as MK-801. […]. […]

5-HT1A receptor [2] = target: T1, 5-HT1A receptor (Homo sapiens, UniProt P08908); test: Ligand binding screen at 10 μM
T1 sequence (P08908 1-422): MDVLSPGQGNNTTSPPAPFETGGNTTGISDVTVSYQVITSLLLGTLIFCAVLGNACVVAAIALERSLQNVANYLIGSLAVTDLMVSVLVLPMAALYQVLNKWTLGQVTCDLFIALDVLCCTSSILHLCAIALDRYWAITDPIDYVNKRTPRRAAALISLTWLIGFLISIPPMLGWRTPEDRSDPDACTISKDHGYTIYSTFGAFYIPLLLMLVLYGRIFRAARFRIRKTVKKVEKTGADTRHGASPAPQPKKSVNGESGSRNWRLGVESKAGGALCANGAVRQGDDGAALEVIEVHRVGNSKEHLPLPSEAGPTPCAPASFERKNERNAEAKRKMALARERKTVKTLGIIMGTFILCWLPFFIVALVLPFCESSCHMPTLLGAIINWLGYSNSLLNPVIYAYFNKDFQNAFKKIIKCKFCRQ

[3] = tested on: apomorphine-induced climbing; test: Reversal of apomorphine-induced climbing; conditions: s.c.
α1 receptors = test: Ligand binding screen at 10 μM
[4] = tested on: MAPK in CA1 region of hippocampus (M1 receptor mediated)
[5] = dog; oral clozapine (Mosier et al. 2003); cited from earlier work
Ca^2+ channels = test: Ligand binding screen at 10 μM
5-HT2C receptor = 5-HT2C receptor (Homo sapiens, UniProt P28335); test: R-SAT competitive antagonist assay
M3 receptors = M3 receptors (Homo sapiens, UniProt P20309); test: Ligand binding screen at 10 μM
[6] = Pharmacokinetics after single i.v. or oral dose in rats; format: in vivo, Sprague-Dawley rats; conditions: rat; for bioavailability: read-out: BA (oral bioavailability)
5-HT1A receptor [7] = target: T1, 5-HT1A receptor; test: R-SAT competitive antagonist assay; conditions: R-SAT; nr = no significant antagonist or inverse agonist activity up to 1 μM; nr* = nr but significant agonist activity
5HT7 receptors = 5HT7 receptors (Homo sapiens, UniProt P34969); test: Ligand binding screen at 10 μM
H1 histamine receptor = H1 histamine receptor (Homo sapiens, UniProt P35367); test: R-SAT competitive antagonist assay
D3 dopamine receptor = D3 dopamine receptor (Homo sapiens, UniProt P35462); conditions: R-SAT; nr = no significant antagonist or inverse agonist activity up to 1 μM; nr* = nr but significant agonist activity
M1 muscarinic receptor = target: T2, M1 muscarinic receptor (Homo sapiens, UniProt P11229); test: R-SAT agonist assay; format: cell-based; design: expressed in transfected cells; host or cells: NIH/3T3
T2 sequence (P11229 1-460): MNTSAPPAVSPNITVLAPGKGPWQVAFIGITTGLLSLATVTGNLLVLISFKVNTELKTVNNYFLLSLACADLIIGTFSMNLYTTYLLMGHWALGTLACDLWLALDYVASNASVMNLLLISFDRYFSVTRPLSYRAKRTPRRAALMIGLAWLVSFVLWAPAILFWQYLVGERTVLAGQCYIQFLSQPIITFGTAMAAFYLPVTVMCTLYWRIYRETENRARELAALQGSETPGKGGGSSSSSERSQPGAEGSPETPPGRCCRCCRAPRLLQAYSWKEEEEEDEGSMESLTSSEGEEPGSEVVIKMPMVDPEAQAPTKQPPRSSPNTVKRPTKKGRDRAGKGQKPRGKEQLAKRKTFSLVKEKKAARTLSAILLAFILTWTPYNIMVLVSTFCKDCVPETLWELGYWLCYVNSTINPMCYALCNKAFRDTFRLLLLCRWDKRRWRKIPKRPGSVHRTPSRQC

5-HT6A receptor = 5-HT6A receptor (Homo sapiens, UniProt P50406); test: R-SAT inverse agonist assay
[8] = target: α2A (Alpha 2A) adrenergic receptor (Homo sapiens, UniProt P08913); test: R-SAT competitive antagonist assay; conditions: nr = no significant antagonist or inverse agonist activity up to 1 μM, nr* = nr but significant agonist activity
[9] = R-SAT, nr = no significant antagonist or inverse agonist activity up to 1 μM, nr* = nr but significant agonist activity
[10] = male, Sprague-Dawley, plasma, iv, 1 mg/kg, Plasma concentration after NDMC administration, NDMC i.v. 1 mg/kg, mean ± SD
[11] = male, Sprague-Dawley, plasma, iv, 1 mg/kg, Plasma concentration of compound measured after clozapine administration, clozapine i.v. 1 mg/kg, mean ± SD
[12] = male, Sprague-Dawley, plasma, po, 10 mg/kg, Plasma concentration after NDMC administration, NDMC p.o. 10 mg/kg, mean ± SD, two p.o. groups
[13] = male, Sprague-Dawley, plasma, po, 10 mg/kg, Plasma concentration after NDMC administration, NDMC p.o. 10 mg/kg, mean ± SD
[14] = male, Sprague-Dawley, plasma, po, 10 mg/kg, Plasma concentration of compound measured after clozapine administration, clozapine p.o. 10 mg/kg, mean ± SD
[15] = NDMC p.o. 10 mg/kg, mean ± SD, two p.o. groups, 10 mg/kg

Sequence of α2A (Alpha 2A) adrenergic receptor (P08913 whole entry): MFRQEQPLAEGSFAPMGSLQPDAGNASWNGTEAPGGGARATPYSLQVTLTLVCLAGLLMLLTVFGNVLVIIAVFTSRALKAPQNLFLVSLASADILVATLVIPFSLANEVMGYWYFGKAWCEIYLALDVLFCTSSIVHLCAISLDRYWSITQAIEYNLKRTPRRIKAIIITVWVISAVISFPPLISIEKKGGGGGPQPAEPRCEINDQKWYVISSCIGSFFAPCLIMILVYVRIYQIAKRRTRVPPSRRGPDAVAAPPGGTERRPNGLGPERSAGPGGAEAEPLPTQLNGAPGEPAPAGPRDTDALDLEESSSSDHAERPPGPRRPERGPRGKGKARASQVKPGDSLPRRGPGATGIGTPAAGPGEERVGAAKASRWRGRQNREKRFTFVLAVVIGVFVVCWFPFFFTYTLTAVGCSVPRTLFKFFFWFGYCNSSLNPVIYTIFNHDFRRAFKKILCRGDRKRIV
Sequence of D3 dopamine receptor (P35462 whole entry): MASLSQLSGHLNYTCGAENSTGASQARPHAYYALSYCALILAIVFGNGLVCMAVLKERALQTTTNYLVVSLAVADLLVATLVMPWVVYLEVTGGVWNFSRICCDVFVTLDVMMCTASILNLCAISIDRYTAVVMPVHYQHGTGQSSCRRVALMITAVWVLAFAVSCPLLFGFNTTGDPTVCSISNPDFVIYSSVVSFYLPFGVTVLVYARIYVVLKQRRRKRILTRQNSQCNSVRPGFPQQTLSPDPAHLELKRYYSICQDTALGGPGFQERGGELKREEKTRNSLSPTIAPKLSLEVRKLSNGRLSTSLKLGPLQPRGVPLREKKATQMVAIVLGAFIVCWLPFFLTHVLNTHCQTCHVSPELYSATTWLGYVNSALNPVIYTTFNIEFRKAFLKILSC
Sequence of 5-HT6A receptor (P50406 whole entry): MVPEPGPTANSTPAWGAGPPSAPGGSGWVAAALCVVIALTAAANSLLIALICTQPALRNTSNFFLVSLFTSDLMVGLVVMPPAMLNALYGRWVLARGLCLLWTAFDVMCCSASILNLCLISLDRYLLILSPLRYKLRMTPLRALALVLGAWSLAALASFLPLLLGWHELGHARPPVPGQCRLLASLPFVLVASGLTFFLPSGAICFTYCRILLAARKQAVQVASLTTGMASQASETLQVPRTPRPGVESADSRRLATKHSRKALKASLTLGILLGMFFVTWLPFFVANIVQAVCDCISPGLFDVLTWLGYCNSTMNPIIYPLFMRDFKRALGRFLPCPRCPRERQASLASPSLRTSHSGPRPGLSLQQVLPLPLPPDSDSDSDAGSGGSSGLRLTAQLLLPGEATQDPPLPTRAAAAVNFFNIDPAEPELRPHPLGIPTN
Sequence of 5-HT2C receptor (P28335 33-458): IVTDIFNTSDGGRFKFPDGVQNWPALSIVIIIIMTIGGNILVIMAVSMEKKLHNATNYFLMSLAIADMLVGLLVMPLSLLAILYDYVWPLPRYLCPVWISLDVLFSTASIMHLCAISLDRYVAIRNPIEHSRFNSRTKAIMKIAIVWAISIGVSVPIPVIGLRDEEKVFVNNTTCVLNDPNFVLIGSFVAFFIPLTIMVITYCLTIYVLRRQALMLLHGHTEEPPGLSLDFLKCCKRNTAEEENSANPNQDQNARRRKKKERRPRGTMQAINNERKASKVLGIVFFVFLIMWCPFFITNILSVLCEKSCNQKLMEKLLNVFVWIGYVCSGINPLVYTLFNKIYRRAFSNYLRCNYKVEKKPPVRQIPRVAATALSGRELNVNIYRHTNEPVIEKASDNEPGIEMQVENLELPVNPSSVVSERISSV
Sequence of H1 histamine receptor (P35367 whole entry): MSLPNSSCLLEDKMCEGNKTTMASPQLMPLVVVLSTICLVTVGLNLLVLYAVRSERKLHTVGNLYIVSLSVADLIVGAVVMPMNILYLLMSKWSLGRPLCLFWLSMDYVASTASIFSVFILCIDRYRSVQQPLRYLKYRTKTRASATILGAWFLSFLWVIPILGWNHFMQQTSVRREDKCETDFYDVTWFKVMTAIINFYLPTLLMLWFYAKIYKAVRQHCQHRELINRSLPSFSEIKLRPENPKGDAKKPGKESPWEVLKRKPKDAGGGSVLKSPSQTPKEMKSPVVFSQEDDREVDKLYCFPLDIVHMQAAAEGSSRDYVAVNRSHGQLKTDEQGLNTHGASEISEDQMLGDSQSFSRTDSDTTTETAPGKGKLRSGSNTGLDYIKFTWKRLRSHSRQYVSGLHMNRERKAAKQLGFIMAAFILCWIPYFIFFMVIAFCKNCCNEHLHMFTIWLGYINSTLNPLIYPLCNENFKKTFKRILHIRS
Sequence of M3 receptors (P20309 whole entry): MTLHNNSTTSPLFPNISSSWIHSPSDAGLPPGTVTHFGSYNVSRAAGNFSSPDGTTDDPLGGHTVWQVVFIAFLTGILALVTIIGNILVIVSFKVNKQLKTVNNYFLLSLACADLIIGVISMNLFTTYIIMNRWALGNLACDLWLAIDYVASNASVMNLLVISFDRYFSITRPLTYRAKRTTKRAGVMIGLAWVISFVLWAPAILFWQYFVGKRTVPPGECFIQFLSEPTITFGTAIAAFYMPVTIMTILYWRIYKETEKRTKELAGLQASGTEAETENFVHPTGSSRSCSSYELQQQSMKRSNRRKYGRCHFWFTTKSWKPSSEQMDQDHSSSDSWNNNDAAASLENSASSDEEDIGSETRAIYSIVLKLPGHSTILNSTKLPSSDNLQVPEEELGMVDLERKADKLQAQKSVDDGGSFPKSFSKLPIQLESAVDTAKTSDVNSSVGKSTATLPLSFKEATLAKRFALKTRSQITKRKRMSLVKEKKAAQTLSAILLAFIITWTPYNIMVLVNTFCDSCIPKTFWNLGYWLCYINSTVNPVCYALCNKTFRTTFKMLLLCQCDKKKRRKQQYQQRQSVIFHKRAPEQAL
Sequence of 5HT7 receptors (P34969 whole entry): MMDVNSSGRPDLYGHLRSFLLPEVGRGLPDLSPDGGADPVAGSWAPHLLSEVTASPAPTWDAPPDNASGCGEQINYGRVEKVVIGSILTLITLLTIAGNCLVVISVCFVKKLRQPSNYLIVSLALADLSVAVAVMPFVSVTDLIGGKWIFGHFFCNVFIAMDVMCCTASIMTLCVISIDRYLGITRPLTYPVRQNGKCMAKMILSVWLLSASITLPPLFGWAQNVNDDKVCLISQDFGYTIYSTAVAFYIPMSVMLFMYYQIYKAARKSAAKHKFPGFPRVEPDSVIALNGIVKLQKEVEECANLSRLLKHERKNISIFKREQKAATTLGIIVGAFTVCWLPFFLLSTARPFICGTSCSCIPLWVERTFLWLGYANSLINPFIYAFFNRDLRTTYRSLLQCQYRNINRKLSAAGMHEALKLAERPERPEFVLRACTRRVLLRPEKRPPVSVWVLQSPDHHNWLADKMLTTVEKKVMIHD

With Clc1ccc2c(c1)N=C(N1CCNCC1)c1ccccc1N2 [NDMC, 8-chloro-11-(1-piperazinyl)-5H-dibenzo [b,e][1,4] diazepine] the “minimal effective dose, attenuation of MK-801-induced hyperactivity” value ([1]; p.o.) was 10 mg/kg, the “minimal effective dose, attenuation of MK-801-induced hyperactivity” value ([1]; s.c.) was 1 mg/kg and the inhibition at 10 µM (5-HT1A receptor [2]) was ≥ 90%. The “minimal effective dose, reduction of apomorphine-induced climbing” value [3] was > 100 mg/kg, the “inhibition of binding, α1” value (α1 receptors) was ≥ 90% and the “MAPK activation in CA1 region of hippocampus” value ([4]; s.c. 3, 10, 30 and 100 mg/kg, killed two hours later, phospho-MAPK immunoreactivity) was “stimulation of MAPK activity at all doses in a dose-dependent manner; also recorded: Robust activation was observed, at a dose of 30 mg/kg”. For the same molecule, the “dose with statistically significant M1 receptor activation (phospho-MAPK)” value ([4]; s.c., optical density of CA1 region, vs vehicle) was ≥ 30 mg/kg, the “Cmax of desmethylclozapine as share of that of clozapine” value [5] was “approximately 20%” and the “inhibition of binding, Ca^2+ channels” value (Ca^2+ channels) was ≥ 90%. For the same molecule, the Ki (5-HT2C receptor) was 0.0158 µM, the “pKi 5-HT2C, competitive antagonist” value (5-HT2C receptor; [9]) was 7.8 ± 0.2 and the inhibition at 10 µM (M3 receptors) was ≥ 90%. It also gave a half-life ([6]; male, Sprague-Dawley, plasma, iv, 1 mg/kg) of 39.3 min, a concentration at 10 min [6, 10] of 540 ± 46 ng/mL and a concentration at 30 min [6, 10] of 276 ± 30 ng/mL. The concentration at 60 min [6, 10] was 126 ± 38 ng/mL, the concentration at 120 min [6, 10] was 33.7 ± 11.4 ng/mL and the concentration at 180 min [6, 10] was 11.7 ± 3.8 ng/mL. For the same molecule, the concentration at 240 min [6, 10] was 5.3 ± 0.3 ng/mL, the concentration at 30 min [6, 11] was 2.8 ± 1.2 ng/mL and the concentration at 60 min [6, 11] was 4 ± 1.5 ng/mL. The concentration at 120 min [6, 11] was 2.3 ± 1 ng/mL, the concentration at 180 min [6, 11] was 0.7 ± 0.1 ng/mL and the concentration at 240 min [6, 11] was 0.8 ± 0.6 ng/mL. The AUC ([6]; male, Sprague-Dawley, plasma, iv, 1 mg/kg, after NDMC i.v. 1 mg/kg, read-out: Average AUC (converted)) was 456 ng·h/mL, the Cmax ([6]; male, Sprague-Dawley, plasma, iv, 1 mg/kg, after NDMC i.v. 1 mg/kg, read-out: Cmax) was 756 ng/mL and the Tmax ([6]; male, Sprague-Dawley, plasma, iv, 1 mg/kg, after NDMC i.v. 1 mg/kg, read-out: Tmax) was 0 min. It also gave an AUC ([6]; male, Sprague-Dawley, plasma, iv, 1 mg/kg, after clozapine i.v. 1 mg/kg, read-out: Average AUC of compound measured (converted)) of 8.16 ng·h/mL, a Cmax ([6]; male, Sprague-Dawley, plasma, iv, 1 mg/kg, after clozapine i.v. 1 mg/kg, read-out: Cmax of compound measured) of 3.99 ng/mL and a Tmax ([6]; male, Sprague-Dawley, plasma, iv, 1 mg/kg, after clozapine i.v. 1 mg/kg, read-out: Tmax of compound measured (converted)) of 60 min. It also gave a Vd ([6]; male, Sprague-Dawley, plasma, iv, 1 mg/kg, read-out: Vss) of 1.47 L/kg, a concentration at 10 min [6, 12] of 305 ± 101 ng/mL and a concentration at 30 min [6, 12] of 582 ± 265 ng/mL. For the same molecule, the concentration at 60 min [6, 12] was 481 ± 181 ng/mL, the concentration at 120 min [6, 13] was 227 ± 75 ng/mL and the concentration at 180 min [6, 13] was 170 ± 26 ng/mL. For the same molecule, the concentration at 240 min [6, 13] was 122 ± 54 ng/mL, the concentration at 120 min [6, 14] was 42.5 ± 15.1 ng/mL and the concentration at 180 min [6, 14] was 13.4 ± 2.54 ng/mL. The concentration at 240 min [6, 14] was 7.1 ± 0.5 ng/mL, the AUC ([6]; male, Sprague-Dawley, plasma, po, 10 mg/kg, after NDMC p.o. 10 mg/kg, read-out: Average AUC (converted)) was 1140 ng·h/mL and the AUC ([6]; male, Sprague-Dawley, plasma, po, 10 mg/kg, after clozapine p.o. 10 mg/kg, read-out: Average AUC of compound measured (converted)) was 270 ng·h/mL. For the same molecule, the Tmax ([6]; male, Sprague-Dawley, plasma, po, 10 mg/kg, after clozapine p.o. 10 mg/kg, read-out: Tmax of compound measured (converted)) was 30 min, the bioavailability ([6]; male, Sprague-Dawley, serum, oral, 10 mg/kg) was ~25% and the Cmax ([6]; male, Sprague-Dawley, serum, po, 10 mg/kg, after NDMC p.o. 10 mg/kg, read-out: Cmax) was 582 ng/mL. For the same molecule, the Tmax ([6]; male, Sprague-Dawley, serum, po, 10 mg/kg, after NDMC p.o. 10 mg/kg, read-out: Tmax) was ≤ 30 min, the Cmax ([6]; male, Sprague-Dawley, serum, po, 10 mg/kg, after clozapine p.o. 10 mg/kg, read-out: Cmax of compound measured) was 194 ng/mL and the bioavailability ([6]; male, Sprague-Dawley, serum, po, 10 mg/kg) was 25%. For the same molecule, the “Plasma concentration after NDMC administration, 10 min” value [6, 15] was 277 ± 57 ng/mL, the “Plasma concentration after NDMC administration, 30 min” value [6, 15] was 576 ± 161 ng/mL and the “Plasma concentration after NDMC administration, 60 min” value [6, 15] was 614 ± 60 ng/mL. The CLs ([6]; after NDMC i.v. 1 mg/kg) was 36.2 mL/min/kg, the “pKi 5-HT1A, competitive antagonist” value (5-HT1A receptor [7]) was “nr and nr^1” and the inhibition at 10 µM (5HT7 receptors) was ≥ 90%. For the same molecule, the Ki (H1 histamine receptor) was 0.00631 µM, the “pKi H1, competitive antagonist” value (H1 histamine receptor; [9]) was 8.2 ± 0.2 and the “pKi D3, competitive antagonist” value (D3 dopamine receptor) was “nr and nr^”. The Ki (M1 muscarinic receptor) was 0.05 µM, the EC50 (M1 muscarinic receptor; M1 pEC50, R-SAT agonist) was 0.055 µM and 0.0501 µM and the EC50 (5-HT6A receptor) was 0.126 µM. The “pEC50 5HT6A, inverse agonist” value (5-HT6A receptor; R-SAT, nr = no significant antagonist or inverse agonist activity up to 1 μM) was 6.9 ± 0.1 and the “pKi α2A, competitive antagonist” value [8] was “nr and nr^”.
